Test results from patent publication US7989469B2, “Certain chemical entities, compositions, and methods” (Cytokinetics, Incorporated, priority 2008, dated 2011).

The compounds below were run on rabbit skeletal muscle myofibril preparations (approximately 90% fast fibers) (assay: Activation of fast skeletal muscle fibers: enzymatic activity of myofibril preparations (PUMA assay system)). Conditions: detergent treated myofibrils at pCa25%, 500 μM ATP; cells marked †: Mean value.
Assay type: biochemical
Set-up: unit not given here
Source text: Fast fiber activators were identified by measuring the enzymatic activity of muscle myofibril preparations using the proprietary PUMA™ (see, e.g., U.S. Pat. Nos. 6,410,254, 6,743,599, 7,202,051, and 7,378,254) assay system. Myofibril preparations consisted of rabbit skeletal muscle (approximately 90% fast fibers) that had been treated with a detergen (triton X-100) to remove cellular membranes and then homogenized. This preparation retained all of the sarcomeric components in a native conformation and the enzymatic activity was still regulated by calcium. Compounds were tested using a myofibril suspension and a level of calcium sufficient to increase enzymatic activity of the myofibrils to 25% of their maximal rate (termed pCa25%). Enzymatic activity was tracked via a kinetic assay with a UV absorption readout. Hits were identified as compounds that increased the rate of enzymatic activity by greater than 40% at 40 μM. Myofibril preparations are calcium regulated and were screened at a level of calcium sufficient to produce a 25% increase in enzymatic rate. Detergent treated myofibrils were incubated with 500 μM ATP and 40 μM compound and a kinetic read of UV absorbance performed. Data was normalized to control wells.

For `CC[C@@H](CO)n1c(O)nc2ncc(Cl)c(-c3ccc(F)cc3)c21` [1-(1S)-1-ethyl-2-hydroxyethyl)-6-chloro-7-(4-fluorophenyl)imidazo[4,5-b]pyridin-2-ol], the “AC1.4 Median” value was 0.363†.
With `CC[C@@H](CO)n1c(O)nc2ncc(Cl)c(-c3ccc(Cl)cc3)c21` [1-((1S)-1-ethyl-2-hydroxyethyl)-6-chloro-7-(4-chlorophenyl)imidazo[4,5-b]pyridin-2-ol] the “AC1.4 Median” value was 0.261†.
In the case of “6-chloro-7-(4-chloro-3-fluorophenyl)-1-(ethylpropyl)imidazo[4,5-b]pyridin-2-ol”, the “AC1.4 Median” value is reported as 0.116†.
In the case of `CC(C)C[C@@H](CO)n1c(O)nc2ncc(Cl)c(-c3ccc(F)cc3)c21` [1-[(1S)-2-hydroxy-1-(2-methylpropyl)ethyl]-6-chloro-7-(4-fluorophenyl)imidazo[4,5-b]pyridin-2-ol], the “AC1.4 Median” value is reported as 0.072†.
For “6-chloro-1-(ethylpropyl)-7-(2-fluorophenyl)imidazo[4,5-b]pyridin-2-ol”, the “AC1.4 Median” value was 0.230†.
“6-chloro-1-(ethylpropyl)-7-(6-methoxy(2-pyridyl))imidazo[4,5-b]pyridin-2-ol” was tested, and the “AC1.4 Median” value was 0.562†.
For `CCC(CC)n1c(O)nc2ncc(Cl)c(-c3ccccc3)c21` [6-chloro-1-(ethylpropyl)-7-phenylimidazo[4,5-b]pyridin-2-ol], the “AC1.4 Median” value was 0.110†.

Same assay, conditions: detergent treated myofibrils at pCa25%, 500 μM ATP; median value (no †)

Point of comparison: `CC[C@H](COP(=O)(O)O)c1nc2nc(O)[nH]c2c(-c2ccc(F)cc2)c1Cl` [(2S)-2-[6-chloro-7-(4-fluorophenyl)-2-hydroxyimidazo[4,5-b]pyridinyl]butyl dihydrogen phosphate], “AC1.4 Median” value 31.644. Against it:
- 6-chloro-1-(ethylpropyl)-7-[4-(trifluoromethoxy)phenyl]imidazo[4,5-b]pyridin-2-ol — lower, 0.781
- CC[C@@H](CNC(C)=O)c1nc2nc(O)[nH]c2c(-c2ccc(F)cc2)c1Cl [N-{(2S)-2-[6-chloro-7-(4-fluorophenyl)-2-hydroxyimidazo[4,5-b]pyridinyl]butyl}acetamide] — lower, 8.4925
- 6-chloro-1-(ethylpropyl)-7-(3-methoxyphenyl)imidazo[4,5-b]pyridin-2-ol — lower, 2.001
- 6-chloro-1-(ethylpropyl)-7-pyrazol-3-ylimidazo[4,5-b]pyridin-2-ol — lower, 26.881
- CC[C@@H](CO)n1c(O)nc2ncc(Cl)c(-c3ccc(Cl)cc3)c21 [1-((1S)-1-ethyl-2-hydroxyethyl)-6-chloro-7-(4-chlorophenyl)imidazo[4,5-b]pyridin-2-ol] — lower, 2.059
- CC[C@H](CO)n1c(O)nc2ncc(Cl)c(-c3ccc(F)c(F)c3)c21 [1-((1R)-1-ethyl-2-hydroxyethyl)-7-(3,4-difluorophenyl)-6-chloroimidazo[4,5-b]pyridin-2-ol] — lower, 4.034
- 3-[6-chloro-1-(ethylpropyl)-2-hydroxyimidazo[4,5-b]pyridin-7-yl]benzenecarbonitrile — lower, 3.336
- 6-chloro-1-(ethylpropyl)-7-(2-methylphenyl)imidazo[4,5-b]pyridin-2-ol — lower, 1.688
- 6-chloro-1-(ethylpropyl)-7-(6-methyl(2-pyridyl))imidazo[4,5-b]pyridin-2-ol — lower, 4.048
- CC(C)(CO)n1c(O)nc2ncc(Cl)c(-c3ccc(F)cc3)c21 [6-chloro-7-(4-fluorophenyl)-1-(2-hydroxy-tert-butyl)imidazo[4,5-b]pyridin-2-ol] — lower, 0.760
- CC(C)CC(CO)n1c(O)nc2ncc(Cl)c(-c3ccc(F)cc3)c21 (stereo not shown) [6-chloro-7-(4-fluorophenyl)-1-[2-hydroxy-1-(2-methylpropyl)ethyl]imidazo[4,5-b]pyridin-2-ol] — lower, 0.210
- 6-chloro-1-(ethylpropyl)-7-(6-methyl(3-pyridyl))imidazo[4,5-b]pyridin-2-ol — lower, 12.164
- 6-chloro-1-(ethylpropyl)-7-[3-(hydroxymethyl)phenyl]imidazo[4,5-b]pyridin-2-ol — lower, 14.377
- CC[C@H](COC)n1c(O)nc2ncc(Cl)c(-c3ccc(F)cn3)c21 [1-[(1R)-1-(methoxymethyl)propyl]-6-chloro-7-(5-fluoro(2-pyridyl))imidazo[4,5-b]pyridin-2-ol] — lower, 1.142
- CCC(CC)n1c(O)nc2ncc(Cl)c(-c3cccc(C=O)c3)c21 [3-[6-chloro-1-(ethylpropyl)-2-hydroxyimidazo[4,5-b]pyridin-7-yl]benzaldehyde] — lower, 1.943
- 6-chloro-1-(ethylpropyl)-7-(4-methyl(2-pyridyl))imidazo[4,5-b]pyridin-2-ol — lower, 11.301
- 6-chloro-1-(ethylpropyl)-7-[2-(methoxymethyl)phenyl]imidazo[4,5-b]pyridin-2-ol — lower, 3.588
- COCC(COC)n1c(O)nc2ncc(Cl)c(-n3cccn3)c21 [6-chloro-1-[2-methoxy-1-(methoxymethyl)ethyl]-7-pyrazolylimidazo[4,5-b]pyridin-2-ol] — lower, 27.9068
- CC[C@H](n1c(O)nc2ncc(Cl)c(-c3ccc(F)cn3)c21)C(C)(C)O [1-((1S)-1-ethyl-2-hydroxy-2-methylpropyl)-6-chloro-7-(5-fluoro(2-pyridyl))imidazo[4,5-b]pyridin-2-ol] — lower, 6.420
- 6-chloro-1-(ethylpropyl)-7-[2-(trifluoromethyl)(4-pyridyl)]imidazo[4,5-b]pyridin-2-ol — lower, 3.590
- CC[C@@H](C)n1c(O)nc2nccc(-n3cccn3)c21 [1-((1R)-1-methylpropyl)-7-pyrazolylimidazo[4,5-b]pyridin-2-ol] — lower, 18.6973
- CC[C@@H](CO)n1c(O)nc2ncc(Cl)c(-c3ccc(F)cn3)c21 [1-((1S)-1-ethyl-2-hydroxyethyl)-6-chloro-7-(5-fluoro(2-pyridyl))imidazo[4,5-b]pyridin-2-ol] — lower, 7.549
- C[C@@H](CO)n1c(O)nc2ncc(Cl)c(-c3ccc(F)cc3)c21 [1-((1S)-2-hydroxy-isopropyl)-6-chloro-7-(4-fluorophenyl)imidazo[4,5-b]pyridin-2-ol] — lower, 2.016
- 6-chloro-7-(5-chloro(2-pyridyl))-1-(methylethyl)imidazo[4,5-b]pyridin-2-ol — lower, 1.781
- 6-chloro-1-(ethylpropyl)-7-(2-pyridyl)imidazo[4,5-b]pyridin-2-ol — lower, 1.616
- OCCCn1c(O)nc2ncc(Cl)c(-c3ccc(F)cc3)c21 [6-chloro-7-(4-fluorophenyl)-1-(3-hydroxypropyl)imidazo[4,5-b]pyridin-2-ol] — lower, 7.015
- CC[C@@H](COC)n1c(O)nc2ncc(Cl)c(-c3ccc(F)cn3)c21 [1-[(1S)-1-(methoxymethyl)propyl]-6-chloro-7-(5-fluoro(2-pyridyl))imidazo[4,5-b]pyridin-2-ol] — lower, 3.771
- 6-chloro-1-(ethylpropyl)-7-(1-methyl(1H-indazol-6-yl))imidazo[4,5-b]pyridin-2-ol — lower, 20.233
- 6-chloro-1-(ethylpropyl)-7-[3-(trifluoromethoxy)phenyl]imidazo[4,5-b]pyridin-2-ol — lower, 2.369
- 2-[6-chloro-1-(ethylpropyl)-2-hydroxyimidazo[4,5-b]pyridin-7-yl]benzenecarbonitrile — lower, 2.886
- 6-chloro-1-(ethylpropyl)-7-(4-pyridyl)imidazo[4,5-b]pyridin-2-ol — lower, 3.015
- 6-chloro-1-(ethylpropyl)-7-(5-fluoro(3-pyridyl))imidazo[4,5-b]pyridin-2-ol — lower, 4.428
